Results as given in patent publication US11304958B2, “Multidentate phenanthridine-containing ligand frameworks and their planar monofunctional platinum complexes for cancer treatment” (UNIVERSITY OF MANITOBA, priority 2018, dated 2022).
Like-named read-outs stand apart in the source and are kept apart here.

Experiments:
[1] = test system: A2780 (cisplatin sensitive) ovarian cancer cell line; assay: MTT cytotoxicity assay, A2780 ovarian cancer cells; format: cell-based, human; conditions: for IC50: 72 h; for in vitro cytotoxic activity in the absence of platinum(II): A2780 and A2780cis cell lines
Text: (§1) In addition, neither the 4-aminophenanthridine precursors nor the proligands L1 or L2 themselves are effective in the absence of platinum(II). As noted above, intercalation enhances covalent binding and ultimately boosts the number of complex-DNA adducts observed for phenanthriplatin, but only when these two processes are simultaneous (30). Phenanthridines in general are anticipated to interact with DNA via an intercalation mechanism, similar to the mechanism of operation of the DNA stain ethidium bromide, of which phenanthridine forms the molecular core (19). […] The differing profile compared to cisplatin (i.e., higher in vitro efficacy and lower cross-resistance) implies a different mechanism of operation from cisplatin, which, considering to the planar structure of 1 and 2 compared to phenanthriplatin (10) likely involves some degree of intercalation. The higher efficacy for 2 (R═CF3) vs 1 (R=tBu) highlights the opportunity to fine-tune biological activity via ligand backbone substitution.
(§2) In addition, neither the phenanthridinyl amines (2-R) nor the ligand itself (L2) are effective in the absence of platinum(II). While not wishing to be bound or limited to a particular theory or hypothesis, it is believed that substituted phenanthridines interact with DNA via an intercalation mechanism, similar to the mechanism of operation of the DNA stain ethidium bromide (19). […] The differing profile compared to cisplatin (i.e., higher in vitro efficacy and lower cross-resistance) implies a different mechanism of operation from cisplatin, which, considering to the planar structure of NNOPt compared to phenanthriplatin (10) likely involves some degree of intercalation. The higher efficacy for 2 (R═CF3) vs 1 (R=tBu) highlights the opportunity to fine-tune biological activity via ligand backbone substitution.
(§3) Cell line: A2780 (ovarian cells), A2780cis (ovarian cells, drug resistant)
(§4) RPMI medium: 10% FBS, 1% PS, 89% RPMI 1×, with L-glutamine
(§5) MTT (5 mg/MI Thiazolyl Blue tetrazolium bromide in PBS)
(§6) A volume of 100 μL of RPMI medium (10% FBS, 1% PS, 89% RPMI 1×, with L-glutamine) containing 2000 cells was seeded in each well of a 96-well microplate, and incubated for 24 h at 37° C. under 5% CO2. After 24 h, a volume of 50 μL of media containing the new compounds of different concentrations was added to the well. The drug-treated cells were incubated for 72 h at 37° C. with 5% CO2. A volume of 30 μL media containing MTT was added into each well, and incubated for 2-4 h at 37° C. with 5% CO2. MTT would be reduced to formazan in living cells.
(§7) Following this, the media were removed carefully by aspiration and 200 μL DMSO was added into each well. The DMSO is used to dissolve the insoluble formazan into a purple solution. The 96-well microplate with DMSO was then shaken for 10 min at room temperature. Final results were obtained by using a microplate reader to examine the absorbance at 562 nm. Analysis of the data was carried out using Origin™.
(§8) A2780 and A2780cis cell lines were cultured in RPM11640 with L-glutamine supplemented with 10% FBS and 1% PS. SKOV-3, MDA-MB-231, A549, and HEK293 cell line were cultured in DMEM 1 g/L glucose, with L-glutamine & sodium pyruvate supplemented with 10% FBS and 1% PS. MET5A cell line was cultured in M199 supplemented with 10% FBS, 1% PS, insulin, 0.1% Trace Elements B, […] Hydrocortisone, and 4 ng/mL EGF. All cell lines were incubated at 37° C. under an atmosphere containing 5% CO2. Cells were passaged by trypsinization and split in a 1:5 ratio.

[2] = test system: A2780cis (cisplatin resistant) ovarian cancer cell line; assay: MTT cytotoxicity assay, A2780cis ovarian cancer cells; format: cell-based, human; conditions: for resistance factor RF = IC50(A2780cis)/IC50(A2780): ovarian cancer cell lines, FIG. 14B
Text: as §1
(§9) Cisplatin and phenanthriplatin were used as controls. Cancer and normal cells were treated for 72 h and cell viability was assessed.
as §2, §3, §4, §5, §6, §7, §8

Human Cancer Cells = conditions: reportedly, ref. (9); cited from earlier work
[3] = test system: non-cancerous kidney cell line HEK293; assay: Cytotoxicity screening against normal cells, HEK293; format: cell-based, human; conditions: 72 h, compared with phenanthriplatin
Experimental: as §9, §6, §7
(§10) A2780 and A2780cis cell lines were cultured in RPM11640 with L-glutamine supplemented with 10% FBS and 1% PS. SKOV-3, MDA-MB-231, A549, and HEK293 cell line were cultured in DMEM 1 g/L glucose, with L-glutamine & sodium pyruvate supplemented with 10% FBS and 1% PS. […]

[4] = test system: non-cancerous mesothelial cell line MET-5A; assay: Cytotoxicity screening against normal cells, MET-5A; format: cell-based, human; conditions: 72 h, compared with phenanthriplatin
Experimental: as §9, §6, §7, §10

[5] = Homo sapiens, A2780, preliminary cytotoxicity data
[6] = Homo sapiens, A2780cis, preliminary cytotoxicity data, MTT, 72 h, read-out: A2780cis IC50
[7] = preliminary cytotoxicity data, MTT, 72 h, read-out: A2780cis IC50
[8] = further screening (FIG. 14A), treated for 72 h, read-out: IC50 in A2780cis cisplatin-resistant ovarian cancer cell line

Q: Which results are given for `Nc1cc(C(F)(F)F)cc2c1ncc1ccccc12` [Complex 2-CF3, 2-trifluoromethyl-4-aminophenanthridine]?
A: IC50 [1, 5]: 19.3 ± 12.1 µM; IC50 [2, 6]: > 100 µM

Q: With `CC(C)(C)c1cc(N)c2ncc3ccccc3c2c1` [Complex 2-tBu, 2-tert-butyl-4-aminophenanthridine] as the compound, how does the IC50 [1, 5] read?
A: 8.38 ± 2.83 µM

Q: And the IC50 [2, 6]?
A: 20.5 ± 6.07 µM

Q: Which “in vitro cytotoxic activity in the absence of platinum(II)” value [1] does the source give for `CC(=O)C=C(C)Nc1cc(C(C)(C)C)cc2c1ncc1ccccc12` [Complex L1, 4-(2′-tert-butyl-4-aminophenanthridinyl)-3-penten-2-one] here?
A: lack of activity

Q: Which “in vitro cytotoxic activity in the absence of platinum(II)” value [1] does the source give for `CC(=O)C=C(C)Nc1cc(C(F)(F)F)cc2c1ncc1ccccc12` [Complex L2, 4-(2′-trifluoromethyl-4′-aminophenanthridinyl)-3-penten-2-one] here?
A: lack of activity

Q: And the IC50 ([1]; preliminary cytotoxicity data)?
A: 7.22 ± 2.07 µM

Q: What about the IC50 [2, 7] of the same compound?
A: 20.1 ± 7.17 µM

Q: What does the source list for `N.N.[Cl][Pt][Cl]` [cisplatin, cis-diaminedichloroplatinum(II), reference compound]?
A: IC50 ([1]; preliminary cytotoxicity data): 0.375 ± 0.217 µM; IC50 [2, 8]: 32.9 ± 8.82 µM; resistance factor RF = IC50(A2780cis)/IC50(A2780) [2]: 23; IC50 [2, 7]: 7.76 ± 0.497 µM

Q: For `N.N.O=[N+]([O-])[O-].[Cl][Pt+].c1ccc2c(c1)cnc1ccccc12` [phenanthriplatin, [c/s-R(NH3)2(phenanthridine)Cl][NO3], reference compound], which “resistance factor RF = IC50(A2780cis)/IC50(A2780)” value [2] is on record?
A: 2.7

Q: With `N.N.O=[N+]([O-])[O-].[Cl][Pt+].c1ccncc1` [pyriplatin, [c/s-R(NH3)2(pyridine)Cl][NO3]] as the compound, how does the “potency relative to cisplatin or oxaliplatin” value (Human Cancer Cells) read?
A: ten-fold less potent

Q: With “[Pt(CF3-phenanthridinenacac)Cl] [Complex 2]” as the compound, how does the “toxicity against normal cells (HEK293)” value [3] read?
A: less toxic than phenanthriplatin

Q: What about the IC50 ([1]; preliminary cytotoxicity data) of the same compound?
A: 0.341 ± 0.112 µM

Q: And the “toxicity against normal cells (MET-5A)” value [4]?
A: less toxic than phenanthriplatin

Q: What about the “IC50 times lower than that of cisplatin” value ([2]; A2780cis, 72 h) of the same compound?
A: 58 times

Q: And the IC50 [2, 8]?
A: 0.55 ± 0.22 µM

Q: What about the “resistance factor RF = IC50(A2780cis)/IC50(A2780)” value [2] of the same compound?
A: 1.1

Q: What about the IC50 [2, 7] of the same compound?
A: 0.955 ± 0.106 µM

Q: Which results are given for “[Pt(tBu-phenanthridine-nacac)Cl] [Complex 1]”?
A: IC50 ([1]; preliminary cytotoxicity data): 2.81 ± 0.168 µM; IC50 [2, 7]: 4.57 ± 1.41 µM
